Results as given in PMC4109836, “Analysis of the co-operative interaction between the allosterically regulated proteins GK and GKRP using tryptophan fluorescence” (Biochemical Journal, 2014).
Residue numbers refer to the chain shown, from its start.

Columns and labels:
GK-W99R/W167F/W257F = target: T1, GK-W99R/W167F/W257F (Homo sapiens, UniProt P35557, W167F/W257F/W99R); parameters: method as in ref 4 (a number printed in a supplementary file, which may have a reference list of its own: not looked up in the article's list); conditions: cited from earlier work
T1 construct: GST (cleaved yes); made in house; host or cells: Escherichia coli
T1 sequence (P35557 1-465 W99R/W167F/W257F): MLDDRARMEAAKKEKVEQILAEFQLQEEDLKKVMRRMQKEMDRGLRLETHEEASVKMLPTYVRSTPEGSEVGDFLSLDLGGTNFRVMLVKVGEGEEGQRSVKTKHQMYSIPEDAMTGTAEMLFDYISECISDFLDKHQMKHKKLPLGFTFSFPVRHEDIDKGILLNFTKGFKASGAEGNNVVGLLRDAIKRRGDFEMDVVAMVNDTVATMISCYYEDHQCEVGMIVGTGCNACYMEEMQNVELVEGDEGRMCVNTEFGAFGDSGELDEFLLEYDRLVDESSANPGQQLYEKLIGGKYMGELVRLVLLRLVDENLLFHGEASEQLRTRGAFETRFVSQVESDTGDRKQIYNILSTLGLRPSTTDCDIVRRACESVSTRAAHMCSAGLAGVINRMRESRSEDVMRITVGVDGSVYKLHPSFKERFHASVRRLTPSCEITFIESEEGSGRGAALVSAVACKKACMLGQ

[1] = target: T2, hGKRP (0.3 μM)–GK-W99R/W167F/W257F (1 μM) complex, GKRP-WT (Homo sapiens, UniProt P35557+Q14397, W167F/W257F/W99R); assay: Ligand binding by / disassembly of GKRP-WT–GK-W99R/W167F/W257F complex by TF of hGKRP
T2 construct: FLAG; GST (cleaved yes); made in house; host or cells: Escherichia coli
T2 sequence (Q14397 1-625): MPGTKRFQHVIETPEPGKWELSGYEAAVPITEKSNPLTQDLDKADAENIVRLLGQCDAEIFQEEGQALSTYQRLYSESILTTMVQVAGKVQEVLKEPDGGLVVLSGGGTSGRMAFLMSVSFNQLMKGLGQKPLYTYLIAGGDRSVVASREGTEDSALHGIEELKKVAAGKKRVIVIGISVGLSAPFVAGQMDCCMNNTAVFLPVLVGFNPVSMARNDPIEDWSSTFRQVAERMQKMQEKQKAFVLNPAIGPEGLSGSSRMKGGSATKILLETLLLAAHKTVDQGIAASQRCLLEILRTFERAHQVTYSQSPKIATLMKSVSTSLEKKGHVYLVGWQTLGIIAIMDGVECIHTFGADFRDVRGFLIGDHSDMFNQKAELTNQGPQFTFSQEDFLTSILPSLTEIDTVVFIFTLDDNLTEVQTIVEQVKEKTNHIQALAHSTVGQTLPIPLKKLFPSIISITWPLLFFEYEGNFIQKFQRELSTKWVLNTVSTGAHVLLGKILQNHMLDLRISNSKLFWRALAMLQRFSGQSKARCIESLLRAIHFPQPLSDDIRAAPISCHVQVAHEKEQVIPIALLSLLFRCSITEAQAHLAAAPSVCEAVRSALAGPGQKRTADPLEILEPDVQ
T2 sequence (P35557 1-465 W99R/W167F/W257F): T1 sequence (P35557 1-465 W99R/W167F/W257F)
Description: (§1) Spectra were measured with a Fluorolog-3-21 Jobin-Yvon Spex Instrument SA equipped with a 450 W Xenon lamp for excitation and a cooled R2658P Hamamatsu photomultiplier tube for detection. For all measurements, 90° geometry was employed and 295 nm excitation wavelengths were used to observe fluorescence emission in the 300–500 nm range. For TF, spectra slit width was set to provide a bandpath of 3 nm for excitation and 3 nm for emission. Spectra were corrected for instrumental response using Spex instrument software. A thermostatically controlled cell holder maintained sample temperature at 20°C. A thermocoupler was used to measure sample temperature. The buffer used contained 20 mM phosphate, 50 mM KCl, 1 mM EDTA and 1 mM DTT (pH 7.2).
(§2) Fluorescence data were obtained via the stepwise addition of the appropriate amount of non-fluorescent GK-W99R/W167F/W257F to GKRP in a fluorescence cuvette. […] The change in GKRP protein fluorescence during titration was also measured using time-dependent scans. A manual procedure was used such that a typical titration with 10–12 additions required 20–25 min to perform. The same buffer as described above was routinely used unless stated otherwise. The bandpath was 0.5 nm at 295 nm for excitation and 12 nm at 340 nm for emission. […] For some graphical presentations the linear form of the Hill equation was used: log[F/(Fsat−F)]=H log x−H log KD [46].

[2] = target: T3, hGKRP (0.3 μM)–GK-W99R/W167F/W257F (1 μM) complex, GKRP-P446L (Homo sapiens, UniProt P35557+Q14397, P446L/W167F/W257F/W99R); assay: Ligand binding by / disassembly of GKRP-P446L–GK-W99R/W167F/W257F complex by TF of hGKRP; conditions: ligand titration of 3:1 GK–GKRP-P446L complex, 20°C
T3 construct: FLAG; GST (cleaved yes); made in house; host or cells: Escherichia coli
T3 sequence (Q14397 1-625 P446L): T2 sequence (Q14397 1-625) with P446L
T3 sequence (P35557 1-465 W99R/W167F/W257F): T1 sequence (P35557 1-465 W99R/W167F/W257F)
Description: as §1, §2

GKRP-P446L = target: T4, GKRP-P446L (Homo sapiens, UniProt Q14397, P446L); assay: Ligand binding to free GKRP-P446L measured by TF of GKRP
T4 construct: FLAG; made in house; host or cells: Escherichia coli
T4 sequence (Q14397 1-625 P446L): T2 sequence (Q14397 1-625) with P446L

GKRP-WT = target: T5, GKRP-WT (Homo sapiens, UniProt Q14397); assay: Ligand binding to free GKRP-WT measured by TF of GKRP; conditions: ligand alone
T5 construct: FLAG; made in house; host or cells: Escherichia coli
T5 sequence (Q14397 1-625): T2 sequence (Q14397 1-625)

[3] = addition of 6.6 mM D-glucose, 0.3 μM GKRP and 1 μM GK, pH 7.2, mono ExpDecay fit
[4] = ligand titration of 3:1 GK–GKRP-WT complex, 20°C
[5] = 0.3 μM GKRP-P446L, ligand alone, 20°C

OC[C@H]1OC(O)[C@H](O)[C@@H](O)[C@@H]1O (stereo partly drawn) [D-Glucose, D-glucose]
H (glucose) (GK-W99R/W167F/W257F): 1.45 | glucose S0.5 (GK-W99R/W167F/W257F): 4.8 mM | A (amplitude) of time-dependent decrease in GKRP-WT TF [1, 3]: 0.04 | τ of time-dependent decrease in GKRP-WT TF [1, 3]: 11 s | H [1, 4]: 1 | ΔF (relative fluorescence change at 340 nm) [1, 4]: −0.065 | Kd ([1]; ligand titration of 3:1 GK–GKRP-WT complex, 20°C, read-out: Kd (apparent)): 12 mM | H [2]: 1 | Kd (GKRP-P446L; 0.3 μM GKRP-P446L, D-glucose alone, 20°C, read-out: S0.5): 27 mM | H (Hill number) (GKRP-P446L; [5]): 1.49 | ΔF (relative fluorescence change at 340 nm) (GKRP-P446L; [5]): −0.06 | effect on the TF signal of GKRP-P446L (GKRP-P446L; ligand alone): lowered the TF signal | ΔF (relative fluorescence change at 340 nm) (GKRP-WT; 0.3 μM GKRP-WT, 20°C): 0 | effect on the TF signal of GKRP-WT (GKRP-WT): no effect
